Measurements reported in patent US10138275B2, “Crystalline powder of cyclic peptide compound, preparation method for same, and uses thereof” (SHANGHAI TECHWELL BIOPHARMACEUTICAL CO., LTD, priority 2014, dated 2018).
Starred links: 1 amine or outer side, 2 acyl side, 3 side chain; linkers in the order of their positions; H or OH if unused. Positions of bridges follow the written chain, without caps; N, C: chain ends. Non-standard residues stand in square brackets, D forms with d. Residues, ends and D or L forms follow the SMILES beside them. *: point of attachment. hTyr(3S-OH,4S-OH,3'-OSO3H) = N[C@H](C(=O)O)[C@H](O)[C@@H](O)c1ccc(O)c(OS(=O)(=O)O)c1; Orn(4R-OH,5R-OH) = O=C([C@H](C[C@@H](O)[C@@H](O)N[*:3])N[*:1])[*:2]; Pro(3S-OH,4S-Me) = C[C@H]1CN[C@H](C(=O)O)[C@H]1O; X1 = CCCCCOc1ccc(-c2cc(-c3ccc(C(=O)*)cc3)no2)cc1; Gln(3R-OH) = NC(=O)C[C@@H](O)[C@H](N)C(=O)O; Hyp = O=C(O)[C@@H]1C[C@@H](O)CN1

Experiments:
[1] = Ratio of dry weight to wet weight (Dry/Wet) of filtered solids; type: physicochemical; settings: wet solids weighed after filtration, before drying
Excerpt: As used herein, the term “Dry/Wet” and “ratio of dry weight to wet weight” can be used interchangeably, both of which refer to the ratio of the weight of a compound without solvent(s) to the weight of the compound with solvent(s). In the present invention, wet weight of crystals is obtained by filtering the crystallized solids until no noticeable droplet outflows and weighing the solids.

[2] = Filtration through a Buchner funnel until no noticeable droplet outflowed; type: physicochemical
Excerpt: In this example, the precipitated solids from Examples 2-10 and Comparative Examples 1-3 were filtered through a Buchner funnel until no noticeable droplet outflowed, and the filtration processes were compared.

[3] = Vacuum-drying at 25° C. with a water system until no organic solvent detected by GC; purity by HPLC; type: physicochemical; settings: for time Needed (for drying): 25° C., vacuum-drying with a water system until no organic solvent detected by GC; for Purity before drying / Purity after drying: HPLC; for Purity before drying: 5 g of solids; for Purity after drying: vacuum-dried at 25° C. with a water system until no organic solvent detected by GC
Excerpt: High performance liquid chromatography (HPLC) is a common method for determining the purity of a compound, wherein a liquid is used as the mobile phase and a high-pressure transfusion system is used for pumping the mobile phase, such as single solvents with different polarities, a mixture of solvents at different proportions, or buffers, into a column packed with a stationary phase. Each component is separated in the column, and then enters into a detector for detection, thereby analyzing a sample. In the present invention, HPLC is used for determining the purity of the compound of formula I and studying the stability of a sample. Conditions of the HPLC method are listed as follows:
Analysis Column: YMC-ODS 250×4.6 mm, 5 μm;
Mobile phase: acetonitrile:phosphate buffer (pH 3.0)=45:70;
Column temperature: 35° C.;
Diluent: aqueous phosphate buffer;
Detection wavelength: 210 nm;
Gas chromatography (GC) used to separate and measure trace impurities in a compound is an accurate, qualitative and quantitative method of analysis. In the present invention, the content of organic solvents in the crystalline powder of the compound of formula I obtained in the present invention is measured by gas chromatography (GC).
5 g of solids were prepared according to the methods of Examples 2-10 and Comparative Examples 1-3 respectively, placed at 25° C., and vacuum-dried together with a water system until no organic solvent was detected through GC. The time for drying was compared, and the purity of the sample was analyzed.

[4] = Ohigashi et al. 2006, cited from earlier work
[5] = Particle size distribution (d10, d50) by Malvern particle size analyzer / laser diffraction; type: physicochemical; settings: for d10, particle size of the crystalline powder / d50, particle size of the crystalline powder: after drying
Experimental: […] Wherein, d10 and d50 are means known for indicating the particle size distribution. d50 refers to a value of particle size, and the size of 50 vol/% of particles is smaller than said value. D10 refers to a value of particle size, and the size of 10 vol/% of particles is smaller than said value. The preferred method for determining d10 and d50 is laser diffraction, d50 of the crystalline powder of the compound of formula I according to the present invention is determined as 10-100 um, and d10 is determined as 1-9 um. Preferably, d50 of the crystalline powder is 20-50 um, and d10 thereof is 1-5 um. Before solid-liquid separation, d50 of the crystalline powder of the compound of formula I is 10-100 um, and d10 thereof is 1-9 um. Preferably, d50 of the crystalline powder is 20-50 um, and d10 thereof is 3-6 um.

[6] = Bulk density of powder by cylinder measurement; type: physicochemical; settings: after drying
Experimental: “Bulk density of powder” is a measurement standard for the relative importance of the interaction between microparticles by comparing the bulk density and tapped density of the powder. Methods for measuring bulk density of powder are known in the art; for example, it can be determined by cylinder measurement, volumetric measurement, and container measurement. Bulk density of the crystalline powder of the compound of formula I according to the present invention is determined as less than 0.7 g/mL, preferably less than 0.6 g/mL, most preferably less than 0.5 g/mL, by cylinder measurement.

[7] = Exposure of dried B82 crystal to the environment (moisture uptake, stability); type: physicochemical
Excerpt: Before drying of the crystals, the content of solvent in the compound of formula I (Dry/Wet) was about 0.25, and a large amount of organic solvent was trapped in the crystal. To render the content of solvent in compliance with the requirements for active pharmaceutical ingredients (API), the drying temperature or the drying time has to be increased during the drying process. Such drying process, however, will increase the degradation product of the compound of formula I, seriously affecting the quality and stability of API.

Compound | ratio of dry weight to wet weight (Dry/Wet) [1] | Time for filtration [2] [min] | time Needed (for drying) [3] [h] | Purity before drying [3] [%] | Purity after drying [3] [%] | content of solvent in the precipitate ([4]; amorphous precipitate before drying) | Dry/Wet of the precipitate before drying ([4]; amorphous precipitate from acetone/ethyl acetate) | d50 of the obtained crystals ([5]; B82-type crystal prepared per Example 1 of WO03/018615) | d10, particle size of the crystalline powder [5] [um] | d50, particle size of the crystalline powder [5] [um] | Bulk density [6] [g/mL] | Bulk density ([6]; listed as B82-type crystals) | ratio of dry weight to wet weight (Dry/Wet) ([1]; listed as B82-type crystals) | moisture absorption when exposed to the environment [7] | stability when exposed to the environment [7]
CCCCCOc1ccc(-c2cc(-c3ccc(C(=O)N[C@H]4C[C@@H](O)[C@@H](O)NC(=O)[C@@H]5[C@@H](O)[C@@H](C)CN5C(=O)[C@H]([C@H](O)CC(N)=O)NC(=O)[C@H]([C@H](O)[C@@H](O)c5ccc(O)c(OS(=O)(=O)[O-])c5)NC(=O)[C@@H]5C[C@@H](O)CN5C(=O)[C@H]([C@@H](C)O)NC4=O)cc3)no2)cc1.[Na+] [Comparative Example 2, reference compound] (X1-[Orn(4R-OH,5R-OH)]T[Hyp][hTyr(3S-OH,4S-OH,3'-OSO3H)][Gln(3R-OH)][Pro(3S-OH,4S-Me)]; lactam 1-C) | 0.13 | 150 | 30 | 98.82 | 96.21 |  |  |  |  |  |  |  |  |  | 
CCCCCOc1ccc(-c2cc(-c3ccc(C(=O)N[C@H]4C[C@@H](O)[C@@H](O)NC(=O)[C@@H]5[C@@H](O)[C@@H](C)CN5C(=O)[C@H]([C@H](O)CC(N)=O)NC(=O)[C@H]([C@H](O)[C@@H](O)c5ccc(O)c(OS(=O)(=O)[O-])c5)NC(=O)[C@@H]5C[C@@H](O)CN5C(=O)[C@H]([C@@H](C)O)NC4=O)cc3)no2)cc1.[Na+] [compound of formula I, 5-[(1S,2S)-2-[(3S,6S,9S,11R,15S,18S,20R,21R,24S,25S,26S)-3-[(R)-2-carbamoyl-1-hydroxyethyl]-11,20,21,25-tetrahydroxy-15-[(R)-1-hydroxyethyl]-26-methyl-2,5,8,14,17,23-hexaoxo-18-[4-[5-(4-pentoxyphenyl)isoxazol-3-yl]benzoylamino]-1,4,7,13,16,22-hexaazatricyclo[22.3.0.0.0^9,13]heptacosan-6-yl]-1,2-dihydroxyethyl]-2-hydroxy phenyl sulfate] (X1-[Orn(4R-OH,5R-OH)]T[Hyp][hTyr(3S-OH,4S-OH,3'-OSO3H)][Gln(3R-OH)][Pro(3S-OH,4S-Me)]; lactam 1-C) |  |  |  |  |  | about 75% | 0.25 |  |  |  |  |  |  |  | 
CCCCCOc1ccc(-c2cc(-c3ccc(C(=O)N[C@H]4C[C@@H](O)[C@@H](O)NC(=O)[C@@H]5[C@@H](O)[C@@H](C)CN5C(=O)[C@H]([C@H](O)CC(N)=O)NC(=O)[C@H]([C@H](O)[C@@H](O)c5ccc(O)c(OS(=O)(=O)[O-])c5)NC(=O)[C@@H]5C[C@@H](O)CN5C(=O)[C@H]([C@@H](C)O)NC4=O)cc3)no2)cc1.[Na+] [Comparative Example 1, reference compound] (X1-[Orn(4R-OH,5R-OH)]T[Hyp][hTyr(3S-OH,4S-OH,3'-OSO3H)][Gln(3R-OH)][Pro(3S-OH,4S-Me)]; lactam 1-C) | 0.25 | 90 | 25 | 99.26 | 97.96 |  |  | 0.2-1.0 um | 0.25 | 0.7 | 0.85 | about 0.8 g/mL | about 0.25 | inclined to absorb moisture | poor stability
CCCCCOc1ccc(-c2cc(-c3ccc(C(=O)N[C@H]4C[C@@H](O)[C@@H](O)NC(=O)[C@@H]5[C@@H](O)[C@@H](C)CN5C(=O)[C@H]([C@H](O)CC(N)=O)NC(=O)[C@H]([C@H](O)[C@@H](O)c5ccc(O)c(OS(=O)(=O)[O-])c5)NC(=O)[C@@H]5C[C@@H](O)CN5C(=O)[C@H]([C@@H](C)O)NC4=O)cc3)no2)cc1.[Na+] [Comparative Example 3, reference compound] (X1-[Orn(4R-OH,5R-OH)]T[Hyp][hTyr(3S-OH,4S-OH,3'-OSO3H)][Gln(3R-OH)][Pro(3S-OH,4S-Me)]; lactam 1-C) | 0.1 | 300 | 32 | 98.74 | 96.17 |  |  |  |  |  |  |  |  |  | 
CCCCCOc1ccc(-c2cc(-c3ccc(C(=O)N[C@H]4C[C@@H](O)[C@@H](O)NC(=O)[C@@H]5[C@@H](O)[C@@H](C)CN5C(=O)[C@H]([C@H](O)CC(N)=O)NC(=O)[C@H]([C@H](O)[C@@H](O)c5ccc(O)c(OS(=O)(=O)[O-])c5)NC(=O)[C@@H]5C[C@@H](O)CN5C(=O)[C@H]([C@@H](C)O)NC4=O)cc3)no2)cc1.[Na+] [Example 2] (X1-[Orn(4R-OH,5R-OH)]T[Hyp][hTyr(3S-OH,4S-OH,3'-OSO3H)][Gln(3R-OH)][Pro(3S-OH,4S-Me)]; lactam 1-C) | 0.45 |  | 7 | 99.68 | 99.68 |  |  |  | 3 | 31.9 | 0.45 |  |  |  | 
